# Results as given in patent publication US10059708B2, “Therapeutic targeting of the interleukin 1 receptor-associated kinase 4 (IRAK4) in leukemias characterized by rearrangements in the mixed lineage leukemia gene (MLL-r)” (Northwestern University, priority 2016, dated 2018).
# What was measured:
# REH cells = assay: REH cell proliferation (trypan blue, Vi-CELL XR); type: cell-based, human; conditions: 500 nM IRAK4 inhibitor
# Experimental: FIG. 4. […] Viable cells were seeded at 0.2 million/mL, and they were monitored by trypan blue exclusion staining and counted using a Vi-CELL XR cell counter. Data are represented as mean±SD (n=3). […] Data are represented as mean±SD (n=3). (C) Venn diagram of deregulated genes in SEM cells by IRAK1/4 and IRAK4 inhibitors. […] (D) Venn diagram of deregulated genes in SEM and REH cells by both inhibitors. Little overlap was observed between REH and SEM cells. […] Each cluster is represented by different colors and a circle node represents each enriched term. (G) UBE2O depletion and IRAK inhibition affect a common subset of genes in SEM cells. […] Heatmaps represent Z score-normalized values. See also FIG. 11.
# Stabilization of MLL through IRAK Inhibition and UBE2O Depletion Regulates a Specific Gene Regulatory Network in MLL Leukemia. To measure the consequence of stabilizing MLL in MLL leukemia cells, we determined the effects of IRAK inhibition on cell proliferation of REH (MLL-germline leukemia) and SEM (MLL-AFF1) cells. Both of these cell lines are derived from precursor B cell ALL patient blast cells, and, therefore, they have been studied when comparing non-MLL (REH) and MLL-dependent (SEM) leukemia gene expression (Guenther et al., 2008).
# [1] = system: MLL-rearranged AML and ALL leukemia cells; assay: Dose-dependent growth study with patient-derived leukemia cell lines; type: cell-based, human; conditions: different doses, 3 days
# Experimental: (§1) FIG. 5. Determinants of the Increased Sensitivity of MLL Leukemia Cells to IRAK Inhibition (A) IRAK4 inhibitor-specific inhibition of MLL leukemia cell proliferation. Multiple MLL leukemia and non-MLL leukemia or lymphoma cell lines were cultured with different doses of IRAK4 inhibitor for 3 days. Data are represented as mean±SD (n=3). (B) Cell growth of MLL-AF9-positive AML MM6 cells is inhibited by IRAK inhibition. Data are represented as mean±SD (n=3). […] The p value was determined with the hypergeometric test. […] (E and F) Depletion of LGALS1 (E) and LMO2 (F) results in reduced growth of MM6 cells. MM6 cells were transduced with shGFP control (GFPi) or two different lentiviral shRNA constructs. After selection with puromycin for 4 days, viable cells were seeded at 0.2 million/mL and cultured for 3 more days before cell viability counting. Data represent the mean±SD (n=3; **p<0.005, one-way ANOVA). See also FIG. 12.
# (§2) Determinants of the Increased Sensitivity of MLL Leukemia Cells to IRAK Inhibition. To further determine the effectiveness of IRAK inhibition for MLL leukemia cell growth, we performed dose-dependent studies with multiple patient-derived leukemia cell lines, including MLL leukemia and non-MLL leukemia or lymphoma cells.
# [2] = system: MLL-AF6-positive ML2 leukemia cells; assay: Dose-dependent growth study, ML2 cells; type: cell-based, human; conditions: different doses, 3 days
# Experimental: as §1, §2
# MLL-AF9 leukemia = assay: Murine MLL-AF9 leukemia transplantation model; type: in vivo, C57BL/6 mice; conditions: treatment from day 10 after transplantation; IRAK1/4 inhibitor 8 mg/kg, IRAK4 inhibitor 75 mg/kg i.p. every other day; vehicle mice all dead by 31 days
# Description: After transformation of MLL-AF9, c-Kit+ HSPCs were transplanted into lethally irradiated C57BL/6 mice with 1 3 106 transformed cells and 2 3 105 support cells. Leukemia cells from primary AML mice were isolated and transplanted into sublethally irradiated C57BL/6 mice. Drug treatments were started at day 10 or 19 after transplantation. (B) Kaplan-Meier survival curves of secondary transplanted C57BL/6 mice after vehicle and IRAK1/4 or IRAK4 inhibitor treatment at day 19 (blast phase). Vehicle or IRAK inhibitors were administered every other day by intraperitoneal injection for a total of five treatments. Leukemia was confirmed at the endpoint for each transplant mouse. […] The p values were calculated using the log rank test. […] The p values were calculated using the log rank test. […]
# We further assessed the effects of the IRAK inhibitors in vivo using the murine MLL-AF9 leukemia transplantation model (FIG. 7A) (Volk et al., 2014). […]
# Murine MLL-AF9 Leukemia Model. […] The mice were monitored for signs of acute leukemia for 2-3 months and euthanized when leukemia was evident (weight loss below 16.75 g, reduced mobility, malaise, palpable spleen, and hunched back). […]
# Animal Treatment. […] Mice were monitored for leukemia development and leukemia was verified after the mice were sacrificed upon signs of illness (weight loss below 16.75 g, partial paralysis, malaise, palpable spleen, and hunched back).
smiles,measurement,setting,value
COc1cc2c(cc1OCCCN1CCN(C)CC1)ncc1c3ccc(C#N)cc3[nH]c21 [IRAK4 inhibitor],REH cell proliferation,REH cells,no detectable effect
same,cell growth of MLL-rearranged versus non-MLL leukemia or lymphoma cells,[1],preferentially impeded cell growth of MLL-rearranged AML and ALL leukemia cells
same,sensitivity of ML2 cells (wild-type MLL allele deleted),[2],not sensitive
same,mice that still did not develop MLL-AF9 leukemia as of day 55,MLL-AF9 leukemia,four of nine
